Reference: ChEMBL document CHEMBL1150783, “In vitro activities of CG400549, a novel FabI inhibitor, against recently isolated clinical staphylococcal strains in Korea” (2007)
≈ marks a conversion by molar mass, not a printed value. Calls of active or inactive are those of the source. The calls are words filed in the database; no cut-off is given here.

Assays:
Corynebacterium = assay: Antibacterial activity against […] by CLSI dilution method; type: functional, organism-based
Enterococcus = assay: Antibacterial activity against Enterococcus by CLSI dilution method; type: functional, organism-based
Streptococcus = assay: Antibacterial activity against Streptococcus by CLSI dilution method; type: functional, organism-based
Nocardia sp. = assay: Antibacterial activity against Nocardia sp. by CLSI dilution method; type: functional, organism-based
Staphylococcus hominis [1] = assay: Antibacterial activity against methicillin-susceptible coagulase-negative Staphylococcus hominis by CLSI dilution method; type: functional
Staphylococcus hominis [2] = assay: Antibacterial activity against methicillin-resistant coagulase-negative Staphylococcus hominis by CLSI dilution method; type: functional
Staphylococcus sp. [3] = assay: Antibacterial activity against methicillin-susceptible coagulase-negative Staphylococcus sp. by CLSI dilution method; type: functional
Acinetobacter baumannii = assay: Antibacterial activity against sAcinetobacter baumannii by CLSI dilution method; type: functional, organism-based
Citrobacter freundii = assay: Antibacterial activity against Citrobacter freundii by CLSI dilution method; type: functional, organism-based
Campylobacter fetus = assay: Antibacterial activity against Campylobacter fetus by CLSI dilution method; type: functional, organism-based
Aeromonas sp. = assay: Antibacterial activity against Aeromonas sp. by CLSI dilution method; type: functional, organism-based
[4] = test system: Staphylococcus haemolyticus; assay: Antibacterial activity against methicillin-susceptible coagulase-negative Staphylococcus haemolyticus by CLSI dilution method; type: functional
Serratia marcescens = assay: Antibacterial activity against Serratia marcescens by CLSI dilution method; type: functional, organism-based
Escherichia coli = assay: Antibacterial activity against sEscherichia coli by CLSI dilution method; type: functional, organism-based
[5] = test system: Staphylococcus haemolyticus; assay: Antibacterial activity against methicillin-resistant coagulase-negative Staphylococcus haemolyticus by CLSI dilution method; type: functional
Moraxella catarrhalis = assay: Antibacterial activity against Moraxella catarrhalis by CLSI dilution method; type: functional, organism-based
[6] = test system: Staphylococcus epidermidis; assay: Antibacterial activity against methicillin-resistant coagulase-negative Staphylococcus epidermidis by CLSI dilution method; type: functional
Klebsiella pneumoniae = assay: Antibacterial activity against Klebsiella pneumoniae by CLSI dilution method; type: functional, organism-based
Haemophilus influenzae = assay: Antibacterial activity against sHaemophilus influenzae by CLSI dilution method; type: functional, organism-based
Helicobacter pylori = assay: Antibacterial activity against Helicobacter pylori by CLSI dilution method; type: functional, organism-based
Listeria monocytogenes = assay: Antibacterial activity against Listeria monocytogenes by CLSI dilution method; type: functional, organism-based
Vibrio sp. = assay: Antibacterial activity against Vibrio sp. by CLSI dilution method; type: functional, organism-based
Staphylococcus simulans = assay: Antibacterial activity against methicillin-susceptible coagulase-negative Staphylococcus simulans by CLSI dilution method; type: functional
Pseudomonas aeruginosa = assay: Antibacterial activity against sPseudomonas aeruginosa by CLSI dilution method; type: functional, organism-based
Mammaliicoccus sciuri = assay: Antibacterial activity against methicillin-resistant coagulase-negative Staphylococcus sciuri by CLSI dilution method; type: functional
Enterobacter cloacae = assay: Antibacterial activity against sEnterobacter cloacae by CLSI dilution method; type: functional, organism-based
Morganella morganii = assay: Antibacterial activity against Morganella morganii by CLSI dilution method; type: functional, organism-based
[7] = test system: Staphylococcus epidermidis; assay: Antibacterial activity against methicillin-susceptible coagulase-negative Staphylococcus epidermidis by CLSI dilution method; type: functional
[8] = test system: Staphylococcus saprophyticus; assay: Antibacterial activity against methicillin-resistant coagulase-negative Staphylococcus saprophyticus by CLSI dilution method; type: functional
Staphylococcus aureus [9] = assay: Antibacterial activity against methicillin-susceptible Staphylococcus aureus isolate by CLSI dilution method; type: functional
Staphylococcus sp. [10] = assay: Antibacterial activity against methicillin-resistant coagulase-negative Staphylococcus sp. by CLSI dilution method; type: functional
Neisseria gonorrhoeae = assay: Antibacterial activity against Neisseria gonorrhoeae by CLSI dilution method; type: functional, organism-based
Staphylococcus aureus [11] = assay: Antibacterial activity against methicillin-resistant Staphylococcus aureus by CLSI dilution method; type: functional
Staphylococcus aureus [12] = assay: Antibacterial activity against methicillin-susceptible Staphylococcus aureus isolate assessed as […] isolates by CLSI dilution method; type: functional
Staphylococcus aureus [13] = assay: (§1) Antibacterial activity against methicillin-resistant Staphylococcus aureus isolate assessed as percent resistant isolates by CLSI dilution method; type: functional
Staphylococcus sp. [14] = assay: (§2) Antibacterial activity against methicillin-susceptible coagulase-negative Staphylococcus sp. assessed as percent susceptible isolates by CLSI dilution method; type: functional
Staphylococcus aureus [15] = assay: Antibacterial activity against methicillin-resistant Staphylococcus aureus isolate assessed as percent susceptible isolates by CLSI dilution method; type: functional
Staphylococcus sp. [16] = assay: Antibacterial activity against methicillin-resistant coagulase-negative Staphylococcus sp. assessed as percent resistant isolates by CLSI dilution method; type: functional
Staphylococcus sp. [17] = assay: as §2; type: functional; remark: listed apart in the source
Staphylococcus aureus [18] = assay: as §1; type: functional; remark: listed apart in the source
Staphylococcus sp. [19] = assay: Antibacterial activity against methicillin-susceptible coagulase-negative Staphylococcus sp. assessed as percent resistant isolates by CLSI dilution method; type: functional

For `Cc1c(N)cccc1Cn1ccc(OCCc2cccs2)cc1=O` [CG-400549], the Activity (Corynebacterium) was “Active”, the Activity (Enterococcus) was “Active” and the Activity (Streptococcus) was “Active”. For the same compound, the Activity (Nocardia sp.) was “Active”, the MIC (Staphylococcus hominis [1]) was 4 µg/mL (≈ 11.7 µM) and the MIC (Staphylococcus hominis [2]) was 4 µg/mL (≈ 11.7 µM). The MIC50 (Staphylococcus sp. [3]) was 0.5 µg/mL (≈ 1.47 µM), the MIC90 (Staphylococcus sp. [3]) was 8 µg/mL (≈ 23.5 µM) and the Activity (Acinetobacter baumannii) was “Active”. The Activity (Citrobacter freundii) was “Active”, the Activity (Campylobacter fetus) was “Active” and the Activity (Aeromonas sp.) was “Active”. For the same compound, the MIC [4] was 2 µg/mL (≈ 5.87 µM), the Activity (Serratia marcescens) was “Active” and the Activity (Escherichia coli) was “Active”. The MIC [5] was 2 µg/mL (≈ 5.87 µM), the Activity (Moraxella catarrhalis) was “Active” and the MIC [6] was 4 µg/mL (≈ 11.7 µM). For the same compound, the Activity (Klebsiella pneumoniae) was “Active”, the Activity (Haemophilus influenzae) was “Active” and the Activity (Helicobacter pylori) was “Active”. The Activity (Listeria monocytogenes) was “Active”, the Activity (Vibrio sp.) was “Active” and the MIC (Staphylococcus simulans) was 4 µg/mL (≈ 11.7 µM). For the same compound, the Activity (Pseudomonas aeruginosa) was “Active”, the MIC (Mammaliicoccus sciuri) was 4 µg/mL (≈ 11.7 µM) and the Activity (Enterobacter cloacae) was “Active”. The Activity (Morganella morganii) was “Active”, the MIC [7] was 8 µg/mL (≈ 23.5 µM) and the MIC [8] was 8 µg/mL (≈ 23.5 µM). It also gave an MIC50 (Staphylococcus aureus [9]) of 0.5 µg/mL (≈ 1.47 µM), an MIC90 (Staphylococcus aureus [9]) of 0.5 µg/mL (≈ 1.47 µM) and an MIC50 (Staphylococcus sp. [10]) of 0.5 µg/mL (≈ 1.47 µM). For the same compound, the MIC90 (Staphylococcus sp. [10]) was 4 µg/mL (≈ 11.7 µM), the Activity (Neisseria gonorrhoeae) was “Active” and the MIC50 (Staphylococcus aureus [11]) was 0.5 µg/mL (≈ 1.47 µM). For the same compound, the MIC90 (Staphylococcus aureus [11]) was 0.5 µg/mL (≈ 1.47 µM).

In the case of `CCC[C@@H]1C[C@@H](C(=O)N[C@@H]([C@H]2O[C@H](SC)[C@H](O)[C@@H](O)[C@H]2O)[C@H](C)Cl)N(C)C1` [CLINDAMYCIN], the Activity (Staphylococcus aureus [12]) is reported as 100%, the Activity (Staphylococcus aureus [13]) is reported as 0% and the MIC50 (Staphylococcus sp. [3]) is reported as 0.12 µg/mL (≈ 0.282 µM). The MIC90 (Staphylococcus sp. [3]) was 0.25 µg/mL (≈ 0.588 µM), the Activity (Staphylococcus sp. [14]) was 44% and the Activity (Staphylococcus aureus [15]) was 12%. For the same compound, the MIC50 (Staphylococcus aureus [9]) was 0.12 µg/mL (≈ 0.282 µM), the MIC90 (Staphylococcus aureus [9]) was 0.12 µg/mL (≈ 0.282 µM) and the Activity (Staphylococcus sp. [16]) was 54%. For the same compound, the MIC50 (Staphylococcus sp. [10]) was greater than 128 µg/mL, the MIC90 (Staphylococcus sp. [10]) was greater than 128 µg/mL and the Activity (Staphylococcus sp. [17]) was 97%. For the same compound, the Activity (Staphylococcus aureus [18]) was 88%, the Activity (Staphylococcus sp. [19]) was 3% and the MIC50 (Staphylococcus aureus [11]) was greater than 128 µg/mL. The MIC90 (Staphylococcus aureus [11]) was greater than 128 µg/mL.

Work on `CC[C@H]1OC(=O)[C@H](C)[C@@H](O[C@H]2C[C@@](C)(OC)[C@@H](O)[C@H](C)O2)[C@H](C)[C@@H](O[C@@H]2O[C@H](C)C[C@H](N(C)C)[C@H]2O)[C@](C)(O)C[C@@H](C)C(=O)[C@H](C)[C@@H](O)[C@]1(C)O` [ERYTHROMYCIN] yielded an Activity (Staphylococcus aureus [12]) of 88%, an Activity (Staphylococcus aureus [13]) of 12% and an MIC50 (Staphylococcus sp. [3]) of 0.25 µg/mL (≈ 0.341 µM). The MIC90 (Staphylococcus sp. [3]) was 128 µg/mL (≈ 174 µM), the Activity (Staphylococcus sp. [14]) was 20% and the Activity (Staphylococcus aureus [15]) was 5%. The MIC50 (Staphylococcus aureus [9]) was 0.5 µg/mL (≈ 0.681 µM), the MIC90 (Staphylococcus aureus [9]) was greater than 128 µg/mL and the Activity (Staphylococcus sp. [16]) was 80%. The MIC50 (Staphylococcus sp. [10]) was 128 µg/mL (≈ 174 µM), the MIC90 (Staphylococcus sp. [10]) was greater than 128 µg/mL and the Activity (Staphylococcus sp. [17]) was 78%. The Activity (Staphylococcus aureus [18]) was 95%, the Activity (Staphylococcus sp. [19]) was 17% and the MIC50 (Staphylococcus aureus [11]) was greater than 128 µg/mL.

For `C[C@H]1COc2c(N3CCN(C)CC3)c(F)cc3c(=O)c(C(=O)O)cn1c23.C[C@H]1COc2c(N3CCN(C)CC3)c(F)cc3c(=O)c(C(=O)O)cn1c23.O` [LEVOFLOXACIN], the Activity (Staphylococcus aureus [12]) was 100%, the Activity (Staphylococcus aureus [13]) was 0% and the MIC50 (Staphylococcus sp. [3]) was 0.25 µg/mL. The MIC90 (Staphylococcus sp. [3]) was 0.25 µg/mL, the Activity (Staphylococcus sp. [14]) was 35% and the Activity (Staphylococcus aureus [15]) was 7%. The MIC50 (Staphylococcus aureus [9]) was 0.25 µg/mL, the MIC90 (Staphylococcus aureus [9]) was 0.5 µg/mL and the Activity (Staphylococcus sp. [16]) was 60%. For the same compound, the MIC50 (Staphylococcus sp. [10]) was 4 µg/mL, the MIC90 (Staphylococcus sp. [10]) was 32 µg/mL and the Activity (Staphylococcus sp. [17]) was 100%. The Activity (Staphylococcus aureus [18]) was 93%, the Activity (Staphylococcus sp. [19]) was 0% and the MIC50 (Staphylococcus aureus [11]) was 16 µg/mL. The MIC90 (Staphylococcus aureus [11]) was greater than 128 µg/mL.
